Measured values published in patent US12486267B2, “Imidazo[1,2-A]pyridine and [1,2,4]triazolo[1,5-A]pyridine derivatives as TLR9 inhibitors for the treatment of fibrosis” (BRISTOL-MYERS SQUIBB COMPANY, priority 2020, dated 2025).

Key:
Type in all cases: cell-based
[1] = biological target: T1, human TLR9 (Homo sapiens, UniProt Q9NR96); experiment: TLR9 inhibition reporter assay (HEK-Blue cells, SEAP reporter); details: HEK-Blue cells overexpressing human TLR9; stimulated with ODN2006 5 nM; 22 hour incubation; SEAP readout
T1 sequence (Q9NR96 26-1032): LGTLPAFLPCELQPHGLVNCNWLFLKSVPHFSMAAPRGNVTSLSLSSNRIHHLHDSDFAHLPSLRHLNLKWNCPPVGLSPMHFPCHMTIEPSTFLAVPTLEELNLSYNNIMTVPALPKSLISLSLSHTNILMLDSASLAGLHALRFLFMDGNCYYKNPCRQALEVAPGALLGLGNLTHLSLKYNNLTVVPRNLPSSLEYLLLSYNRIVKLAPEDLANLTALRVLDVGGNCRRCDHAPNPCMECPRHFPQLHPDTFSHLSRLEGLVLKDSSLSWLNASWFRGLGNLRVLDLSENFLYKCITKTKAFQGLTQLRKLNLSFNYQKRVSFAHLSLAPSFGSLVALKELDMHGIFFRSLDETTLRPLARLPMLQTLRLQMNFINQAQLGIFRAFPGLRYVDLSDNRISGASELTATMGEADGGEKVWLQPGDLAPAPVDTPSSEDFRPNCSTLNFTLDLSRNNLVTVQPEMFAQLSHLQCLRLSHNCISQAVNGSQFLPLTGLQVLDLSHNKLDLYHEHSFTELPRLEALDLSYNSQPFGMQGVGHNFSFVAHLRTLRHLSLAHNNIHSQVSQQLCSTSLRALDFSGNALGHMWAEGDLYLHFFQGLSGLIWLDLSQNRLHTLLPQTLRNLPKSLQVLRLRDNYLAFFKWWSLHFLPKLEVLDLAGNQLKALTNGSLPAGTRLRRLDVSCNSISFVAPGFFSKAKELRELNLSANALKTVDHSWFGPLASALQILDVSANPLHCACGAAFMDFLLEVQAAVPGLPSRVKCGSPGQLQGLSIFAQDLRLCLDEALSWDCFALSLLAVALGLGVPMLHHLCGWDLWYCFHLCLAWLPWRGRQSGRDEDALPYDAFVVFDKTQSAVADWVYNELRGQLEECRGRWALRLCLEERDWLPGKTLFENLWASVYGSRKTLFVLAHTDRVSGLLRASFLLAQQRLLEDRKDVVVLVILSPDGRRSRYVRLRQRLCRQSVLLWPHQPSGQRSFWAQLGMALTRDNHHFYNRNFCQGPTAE
Procedure, shortened: (§1)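 HEK-Blue cells with an NF-κB/AP-1-driven SEAP reporter were pre-treated 30 min at room temperature with compound (0.05 nM–50 μM), then stimulated with gardiquimod 7.5 μM (TLR7), R848 15.9 μM (TLR8) or ODN2006 5 nM (TLR9). After 22 h at 37 °C, SEAP was read; % inhibition was referenced to agonist+DMSO and known-inhibitor wells.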

[2] = biological target: T2, human TLR7 (Homo sapiens, UniProt Q9NYK1); experiment: TLR7 inhibition reporter assay (HEK-Blue cells, SEAP reporter); details: HEK-Blue cells overexpressing human TLR7; stimulated with gardiquimod 7.5 μM; 22 hour incubation; SEAP readout
T2 sequence (Q9NYK1 27-1049): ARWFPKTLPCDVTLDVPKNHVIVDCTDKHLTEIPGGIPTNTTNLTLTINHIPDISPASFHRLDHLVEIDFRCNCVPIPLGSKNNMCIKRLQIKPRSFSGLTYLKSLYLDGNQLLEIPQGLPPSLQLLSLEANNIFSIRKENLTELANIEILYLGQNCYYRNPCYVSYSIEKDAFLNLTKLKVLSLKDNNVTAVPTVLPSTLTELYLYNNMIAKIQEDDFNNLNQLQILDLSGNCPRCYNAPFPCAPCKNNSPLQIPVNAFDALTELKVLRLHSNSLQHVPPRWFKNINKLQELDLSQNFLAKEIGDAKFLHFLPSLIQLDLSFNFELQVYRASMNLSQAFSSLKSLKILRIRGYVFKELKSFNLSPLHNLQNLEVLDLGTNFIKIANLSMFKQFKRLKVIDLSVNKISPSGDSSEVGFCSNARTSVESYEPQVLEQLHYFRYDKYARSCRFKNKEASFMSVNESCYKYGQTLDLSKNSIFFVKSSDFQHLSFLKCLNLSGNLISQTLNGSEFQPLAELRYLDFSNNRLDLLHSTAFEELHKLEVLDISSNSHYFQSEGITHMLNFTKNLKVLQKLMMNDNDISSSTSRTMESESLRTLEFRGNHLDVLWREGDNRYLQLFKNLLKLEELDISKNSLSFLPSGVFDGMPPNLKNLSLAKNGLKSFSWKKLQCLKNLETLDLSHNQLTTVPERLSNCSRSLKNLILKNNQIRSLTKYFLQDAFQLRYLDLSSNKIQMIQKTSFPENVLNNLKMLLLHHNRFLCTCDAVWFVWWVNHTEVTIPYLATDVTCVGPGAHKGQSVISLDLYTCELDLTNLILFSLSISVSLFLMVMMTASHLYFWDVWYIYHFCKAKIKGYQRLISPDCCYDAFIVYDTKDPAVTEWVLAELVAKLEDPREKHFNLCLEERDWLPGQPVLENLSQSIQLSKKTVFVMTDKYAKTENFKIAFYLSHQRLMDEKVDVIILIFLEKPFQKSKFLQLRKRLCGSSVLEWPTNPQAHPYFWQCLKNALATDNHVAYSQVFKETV
Procedure, shortened: as §1

[3] = biological target: T3, human TLR8 (Homo sapiens, UniProt Q9NR97); experiment: TLR8 inhibition reporter assay (HEK-Blue cells, SEAP reporter); details: HEK-Blue cells overexpressing human TLR8; stimulated with R848 15.9 μM; 22 hour incubation; SEAP readout
T3 sequence (Q9NR97 27-1041): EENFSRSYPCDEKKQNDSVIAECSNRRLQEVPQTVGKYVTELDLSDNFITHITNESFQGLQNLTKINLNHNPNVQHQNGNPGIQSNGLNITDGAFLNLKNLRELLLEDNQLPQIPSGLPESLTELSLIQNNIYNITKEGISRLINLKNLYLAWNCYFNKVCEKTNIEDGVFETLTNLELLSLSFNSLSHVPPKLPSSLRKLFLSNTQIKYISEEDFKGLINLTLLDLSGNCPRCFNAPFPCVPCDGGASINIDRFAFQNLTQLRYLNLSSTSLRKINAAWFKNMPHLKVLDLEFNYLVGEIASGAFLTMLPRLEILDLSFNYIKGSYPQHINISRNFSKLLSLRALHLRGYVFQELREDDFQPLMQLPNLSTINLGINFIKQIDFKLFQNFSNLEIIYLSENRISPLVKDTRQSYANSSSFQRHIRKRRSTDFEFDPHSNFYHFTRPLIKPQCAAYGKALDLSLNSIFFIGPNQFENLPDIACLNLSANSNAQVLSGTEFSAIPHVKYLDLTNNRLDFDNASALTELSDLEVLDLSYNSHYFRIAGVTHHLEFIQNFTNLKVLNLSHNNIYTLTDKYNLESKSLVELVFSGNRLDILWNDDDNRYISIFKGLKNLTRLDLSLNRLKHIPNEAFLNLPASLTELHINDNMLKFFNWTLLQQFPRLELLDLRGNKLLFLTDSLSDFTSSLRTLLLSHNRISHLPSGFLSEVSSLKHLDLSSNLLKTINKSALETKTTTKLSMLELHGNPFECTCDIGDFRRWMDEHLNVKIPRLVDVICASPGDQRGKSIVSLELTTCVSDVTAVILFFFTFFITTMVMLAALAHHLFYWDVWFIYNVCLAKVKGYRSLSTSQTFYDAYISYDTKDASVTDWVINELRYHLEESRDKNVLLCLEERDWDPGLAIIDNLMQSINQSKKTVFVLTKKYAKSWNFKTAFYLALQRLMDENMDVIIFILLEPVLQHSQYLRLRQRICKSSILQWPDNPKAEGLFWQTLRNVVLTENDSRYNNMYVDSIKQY
Procedure, shortened: as §1

SMILES	IC50 [1] [µM]	IC50 [2] [µM]	IC50 [3] [µM]
Cc1cc(-c2ccc(N3CCN(C4CCC4)CC3)cc2)cn2cc(-c3ccc(S(C)(=O)=O)cc3)nc12 [Example 102, 6-(4-(4-cyclobutylpiperazin-1-yl)phenyl)-8-methyl-2-(4-(methylsulfonyl)phenyl) imidazo[1,2-a]pyridine]	0.71	6.3	17
Cc1cc(-c2ccc(N3CCN(C4COC4)CC3)cc2)cn2cc(-c3ccc(S(C)(=O)=O)cc3)nc12 [Example 103, 8-methyl-2-(4-(methylsulfonyl)phenyl)-6-(4-(4-(oxetan-3-yl)piperazin-1-yl)phenyl)imidazo[1,2-a]pyridine]	9.2	38.5	> 50
Cc1cc(-c2ccc(N3CCN(C4CCOCC4)CC3)cc2)cn2cc(-c3ccc(S(C)(=O)=O)cc3)nc12 [Example 104, 8-methyl-2-(4-(methylsulfonyl)phenyl)-6-(4-(4-(tetrahydro-2H-pyran-4-yl)piperazin-1-yl)phenyl)imidazo[1,2-a]pyridine]	0.451	5.1	> 50
CC(C)CN1CCC(N2CCC(c3cc(F)c4nc(-c5ccc(S(C)(=O)=O)cc5)cn4c3)CC2)CC1 [Example 107, 8-fluoro-6-(1′-isobutyl-[1,4′-bipiperidin]-4-yl)-2-(4-(methylsulfonyl)phenyl) imidazo[1,2-a]pyridine]	0.1	11	> 50
CS(=O)(=O)c1ccc(-c2cn3cc(C4CCN(C5CCN(C6CC6)CC5)CC4)cc(F)c3n2)cc1 [Example 108, 6-(1′-cyclopropyl-[1,4′-bipiperidin]-4-yl)-8-fluoro-2-(4-(methylsulfonyl)phenyl) imidazo[1,2-a]pyridine]	0.313	29.5	> 50
CS(=O)(=O)c1ccc(-c2cn3cc(C4CCN(C5CCN(CC6CC6)CC5)CC4)cc(F)c3n2)cc1 [Example 109, 6-(1′-(cyclopropylmethyl)-[1,4′-bipiperidin]-4-yl)-8-fluoro-2-(4-(methylsulfonyl)phenyl)imidazo[1,2-a]pyridine]	0.0043	1.3	> 50
CS(=O)(=O)c1ccc(-c2cn3cc(C4CCN(C5CCN(C6CCC6)CC5)CC4)cc(F)c3n2)cc1 [Example 110, 6-(1′-cyclobutyl-[1,4′-bipiperidin]-4-yl)-8-fluoro-2-(4-(methylsulfonyl)phenyl) imidazo[1,2-a]pyridine]	0.0046	2.4	> 50
CS(=O)(=O)c1ccc(-c2cn3cc(C4CCN(C5CCN(C6COC6)CC5)CC4)cc(F)c3n2)cc1 [Example 111, 8-fluoro-2-(4-(methylsulfonyl)phenyl)-6-(1′-(oxetan-3-yl)-[1,4′-bipiperidin]-4-yl)imidazo[1,2-a]pyridine]	0.235	13	> 50
CS(=O)(=O)c1ccc(-c2cn3cc(C4CCN(C5CCN(C6CCOCC6)CC5)CC4)cc(F)c3n2)cc1 [Example 112, 8-fluoro-2-(4-(methylsulfonyl)phenyl)-6-(1′-(tetrahydro-2H-pyran-4-yl)-[1,4′-bipiperidin]-4-yl)imidazo[1,2-a]pyridine]	0.098	4.5	> 50
CC(C)CN1CCC(N2CCC(c3cn4cc(-c5ccc(S(C)(=O)=O)cc5)nc4cc3F)CC2)CC1 [Example 123, 7-fluoro-6-(1′-isobutyl-[1,4′-bipiperidin]-4-yl)-2-(4-(methylsulfonyl)phenyl) imidazo[1,2-a]pyridine]	0.496	> 50	> 50
CC(C)CN1CCC(N2CCC(c3ccc4nc(-c5ccc(S(C)(=O)=O)cc5)cn4c3F)CC2)CC1 [Example 131, 5-fluoro-6-(1′-isobutyl-[1,4′-bipiperidin]-4-yl)-2-(4-(methylsulfonyl)phenyl) imidazo[1,2-a]pyridine]	0.058	18.1	16.7
CC(C)N1CCC(N2CCC(c3ccn4cc(-c5ccc(S(C)(=O)=O)cc5)nc4c3F)CC2)CC1 [Example 132, 8-fluoro-7-(1′-isopropyl-[1,4′-bipiperidin]-4-yl)-2-(4-(methylsulfonyl)phenyl) imidazo[1,2-a]pyridine]	0.3	4	> 50
CS(=O)(=O)c1ccc(-c2cn3ccc(C4CCN(C5CCN(C6CCOCC6)CC5)CC4)c(F)c3n2)cc1 [Example 133, 8-fluoro-2-(4-(methylsulfonyl)phenyl)-7-(1′-(tetrahydro-2H-pyran-4-yl)-[1,4′-bipiperidin]-4-yl)imidazo[1,2-a]pyridine]	0.006	1.9	> 50
COc1ccc(-c2nc3n(n2)CC(c2ccc(N4CC5CCC(C4)N5C(C)C)cc2)CC3C)cc1OC (stereo not drawn) [Example 152, 2-(3,4-dimethoxyphenyl)-6-(4-(8-isopropyl-3,8-diazabicyclo[3.2.1]octan-3-yl)phenyl)-8-methyl-5,6,7,8-tetrahydro-[1,2,4]triazolo[1,5-a]pyridine]	0.357	> 50	> 50
